Assay results as given in publication PMC5224920, “Assessing the mechanism and therapeutic potential of modulators of the human Mediator complex-associated protein kinases” (eLife, 2016).

System: 12 single or co-culture in vitro tissue models of primary cells
Test: Culture/co-culture cell model panel, extracellular biomarkers (DiscoveRx); as to CCL2/MCP-1: reference of the scale not given here; as to CD38: reference of the scale not given here; as to CD40: reference of the scale not given here; as to CD69: reference of the scale not given here; as to CXCL8/IL-8: reference of the scale not given here; as to CXCL9/MIG: reference of the scale not given here; as to IL-1alpha: reference of the scale not given here; as to M-CSF: reference of the scale not given here; as to PBMC Cytotoxicity: reference of the scale not given here
Type: cell-based, human
[1] = /Mphg Huvec+macrophages, 1.00E4 nM
[2] = /Mphg Huvec+macrophages, 1.11E3 nM
[3] = /Mphg Huvec+macrophages, 1.23E2 nM
[4] = /Mphg Huvec+macrophages, 1.37E1 nM
[5] = /Mphg Huvec+macrophages, 3.33E3 nM
[6] = /Mphg Huvec+macrophages, 3.70E2 nM
[7] = /Mphg Huvec+macrophages, 4.12E1 nM
[8] = /Mphg Huvec+macrophages, 4.57E0 nM

Cc1n[nH]c2ncc(C(=O)N3CCC[C@H]3c3ccc(Cl)cc3)cc12 [CMPD4]
Collagen I (/HDFNo, 4.57E0 nM): -0.029
Collagen III (/HDFNo, 4.57E0 nM): 0.064
CCL2/MCP-1 [1]: -0.014
CCL3/MIP-1alpha [1]: 0.020
CD40 [1]: 0.064
CD62E/E-Selectin [1]: -0.080
CD69 [1]: 0.239
CD106/VCAM-1 [1]: 0.005
CXCL8/IL-8 [1]: 0.133
IL-1alpha [1]: -0.065
M-CSF [1]: 0.054
SRB [1]: -0.016
SRB-Mphg [1]: 0.00054
sIL-10 [1]: -0.061
CCL2/MCP-1 [2]: -0.111
CCL3/MIP-1alpha [2]: -0.011
CD40 [2]: 0.027
CD62E/E-Selectin [2]: -0.087
CD69 [2]: 0.187
CD106/VCAM-1 [2]: -0.0013
CXCL8/IL-8 [2]: 0.008
IL-1alpha [2]: -0.048
M-CSF [2]: -0.024
SRB [2]: -0.010
SRB-Mphg [2]: -0.020
sIL-10 [2]: -0.122
CCL2/MCP-1 [3]: -0.109
CCL3/MIP-1alpha [3]: 0.015
CD40 [3]: -0.002
CD62E/E-Selectin [3]: -0.108
CD69 [3]: 0.181
CD106/VCAM-1 [3]: 0.017
CXCL8/IL-8 [3]: 0.014
IL-1alpha [3]: -0.049
M-CSF [3]: -0.028
SRB [3]: -0.00948
SRB-Mphg [3]: 0.00118
sIL-10 [3]: -0.100
CCL2/MCP-1 [4]: -0.054
CCL3/MIP-1alpha [4]: 0.000182
CD40 [4]: -0.054
CD62E/E-Selectin [4]: -0.144
CD69 [4]: 0.083
CD106/VCAM-1 [4]: 0.0075
CXCL8/IL-8 [4]: 0.000538
IL-1alpha [4]: -0.006
M-CSF [4]: -0.041
SRB [4]: -0.007
SRB-Mphg [4]: 0.004
sIL-10 [4]: 0.023
CCL2/MCP-1 [5]: -0.091
CCL3/MIP-1alpha [5]: -9.82e-5
CD40 [5]: 0.039
CD62E/E-Selectin [5]: -0.094
CD69 [5]: 0.200
CD106/VCAM-1 [5]: 0.025
CXCL8/IL-8 [5]: 0.043
IL-1alpha [5]: -0.044
M-CSF [5]: -0.021
SRB [5]: -0.013
SRB-Mphg [5]: 0.00473
sIL-10 [5]: -0.159
CCL2/MCP-1 [6]: -0.110
CCL3/MIP-1alpha [6]: -0.009
CD40 [6]: -0.020
CD62E/E-Selectin [6]: -0.094
CD69 [6]: 0.185
CD106/VCAM-1 [6]: 0.027
CXCL8/IL-8 [6]: 0.00143
IL-1alpha [6]: -0.030
M-CSF [6]: -0.017
SRB [6]: -0.005
SRB-Mphg [6]: -0.005
sIL-10 [6]: -0.159
CCL2/MCP-1 [7]: -0.089
CCL3/MIP-1alpha [7]: 0.015
CD40 [7]: -0.055
CD62E/E-Selectin [7]: -0.120
CD69 [7]: 0.131
CD106/VCAM-1 [7]: -0.013
CXCL8/IL-8 [7]: 0.037
IL-1alpha [7]: -0.015
M-CSF [7]: -0.025
SRB [7]: -0.00546
SRB-Mphg [7]: 0.005
sIL-10 [7]: -0.021
CCL2/MCP-1 [8]: -0.005
CCL3/MIP-1alpha [8]: -0.00218
CD40 [8]: -0.087
CD62E/E-Selectin [8]: -0.111
CD69 [8]: 0.012
CD106/VCAM-1 [8]: 0.00354
CXCL8/IL-8 [8]: -0.024
IL-1alpha [8]: 0.018
M-CSF [8]: -0.010
SRB [8]: 0.001
SRB-Mphg [8]: 0.011
sIL-10 [8]: 0.038
CCL2/MCP-1 (/TH2, 1.00E4 nM): -0.115
CCL26/Eotaxin-3 (/TH2, 1.00E4 nM): -0.131
CD38 (/TH2, 1.00E4 nM): -0.035
CD40 (/TH2, 1.00E4 nM): -0.240
CD62E/E-Selectin (/TH2, 1.00E4 nM): 0.049
CD62P/P-selectin (/TH2, 1.00E4 nM): -0.00467
CD69 (/TH2, 1.00E4 nM): -0.006
CD87/uPAR (/TH2, 1.00E4 nM): -0.174
CD106/VCAM-1 (/TH2, 1.00E4 nM): -0.004
CXCL8/IL-8 (/TH2, 1.00E4 nM): -0.049
CXCL9/MIG (/TH2, 1.00E4 nM): -0.021
Collagen IV (/TH2, 1.00E4 nM): 0.028
PBMC Cytotoxicity (/TH2, 1.00E4 nM): -0.00277
SRB (/TH2, 1.00E4 nM): -0.174
sIL-17A (/TH2, 1.00E4 nM): 0.175
sIL-17F (/TH2, 1.00E4 nM): 0.137
CCL2/MCP-1 (/TH2, 1.11E3 nM): -0.084
CCL26/Eotaxin-3 (/TH2, 1.11E3 nM): -0.167
CD38 (/TH2, 1.11E3 nM): -0.006
CD40 (/TH2, 1.11E3 nM): -0.166
CD62E/E-Selectin (/TH2, 1.11E3 nM): 0.083
CD62P/P-selectin (/TH2, 1.11E3 nM): -0.044
CD69 (/TH2, 1.11E3 nM): 0.041
CD87/uPAR (/TH2, 1.11E3 nM): -0.190
CD106/VCAM-1 (/TH2, 1.11E3 nM): 0.034
CXCL8/IL-8 (/TH2, 1.11E3 nM): -0.084
CXCL9/MIG (/TH2, 1.11E3 nM): -0.034
Collagen IV (/TH2, 1.11E3 nM): -0.00538
PBMC Cytotoxicity (/TH2, 1.11E3 nM): -0.052
SRB (/TH2, 1.11E3 nM): -0.084
sIL-17A (/TH2, 1.11E3 nM): 0.045
sIL-17F (/TH2, 1.11E3 nM): 0.003
CCL2/MCP-1 (/TH2, 1.23E2 nM): -0.100
CCL26/Eotaxin-3 (/TH2, 1.23E2 nM): -0.152
CD38 (/TH2, 1.23E2 nM): -0.00143
CD40 (/TH2, 1.23E2 nM): -0.162
CD62E/E-Selectin (/TH2, 1.23E2 nM): 0.078
CD62P/P-selectin (/TH2, 1.23E2 nM): -0.060
CD69 (/TH2, 1.23E2 nM): 0.046
CD87/uPAR (/TH2, 1.23E2 nM): -0.227
CD106/VCAM-1 (/TH2, 1.23E2 nM): 0.025
CXCL8/IL-8 (/TH2, 1.23E2 nM): -0.055
CXCL9/MIG (/TH2, 1.23E2 nM): -0.030
Collagen IV (/TH2, 1.23E2 nM): -0.013
PBMC Cytotoxicity (/TH2, 1.23E2 nM): 0.007
SRB (/TH2, 1.23E2 nM): -0.061
sIL-17A (/TH2, 1.23E2 nM): 0.043
sIL-17F (/TH2, 1.23E2 nM): 0.061
CCL2/MCP-1 (/TH2, 1.37E1 nM): -0.029
CCL26/Eotaxin-3 (/TH2, 1.37E1 nM): -0.152
CD38 (/TH2, 1.37E1 nM): 0.015
CD40 (/TH2, 1.37E1 nM): -0.156
CD62E/E-Selectin (/TH2, 1.37E1 nM): 0.024
CD62P/P-selectin (/TH2, 1.37E1 nM): -0.040
CD69 (/TH2, 1.37E1 nM): 0.016
CD87/uPAR (/TH2, 1.37E1 nM): -0.193
CD106/VCAM-1 (/TH2, 1.37E1 nM): 0.020
CXCL8/IL-8 (/TH2, 1.37E1 nM): -0.050
CXCL9/MIG (/TH2, 1.37E1 nM): 0.013
Collagen IV (/TH2, 1.37E1 nM): 0.018
PBMC Cytotoxicity (/TH2, 1.37E1 nM): -0.060
SRB (/TH2, 1.37E1 nM): -0.037
sIL-17A (/TH2, 1.37E1 nM): -0.008
sIL-17F (/TH2, 1.37E1 nM): 0.096
CCL2/MCP-1 (/TH2, 3.33E3 nM): -0.125
